In patent US20100055066A1, “Agent for prophylactic and/or therapeutic treatment of diabetes” (priority 2004, published 2010):

Tests used:
Assay type in all cases: in vivo
[1] = tested on: cyp7α; experiment: Liver cyp7α gene expression by quantitative PCR after FXR agonist (Example 2); details: KKAy mice, 10 mg/kg orally for 4 days, liver on 5th day, FIG. 6-1
Procedure: (§1) An FXR agonist, GW-4064 (J. Med. Chem., vol. 43(16), pp. 2971-2974, 2000), was orally administered in a dosage of 10 mg/kg for 4 days. On the 5th day, mice were dissected to isolate the livers.

[2] = tested on: SHP; experiment: Liver SHP gene expression by quantitative PCR after FXR agonist (Example 2); details: KKAy mice, 10 mg/kg orally for 4 days, liver on 5th day, FIG. 6-2
Procedure: as §1

[3] = tested on: PEPCK; experiment: Liver PEPCK gene expression by quantitative PCR after FXR agonist (Example 2); details: KKAy mice, 10 mg/kg orally for 4 days, liver on 5th day, FIG. 7
Procedure: as §1

expression level of the gene for cyp7α in the liver compared with control group [1]: decreased
SMILES: CC(C)c1onc(-c2c(Cl)cccc2Cl)c1COc1ccc(/C=C/c2cccc(C(=O)O)c2)c(Cl)c1 [GW-4064]
expression level of the gene for SHP in the liver compared with control group [2]: increased | expression level of the gene for PEPCK in the liver compared with control group [3]: increased
